Source: patent US20260297060A1, “COMPOUNDS FOR THE DEGRADATION OF MUTANT BRAF” (C4 THERAPEUTICS, INC., priority 2023, published 2026)
Where two headings read alike, the source gives them in different places.

Legend:
[1] = Example 8 pharmacokinetics assay for PKPD study (plasma, tumor, liver); type: in vivo, BALB/c nude mice; details: 10 mg/kg, p.o., single dose; for concentration at 6 h / concentration at 12 h / concentration at 1 h / concentration at 24 h: mouse, po
Protocol: For the PK and PD study, agents were administered to BALB/c nude mice bearing A375 human melanoma xenografts tumors. encorafenib, Compound 8, Compound 26, Compound 38, and Compound 39 were dosed p.o. once on day 1. Encorafenib was dosed at 35 mg/kg, Compound 8, Compound 26, Compound 38, and Compound 39 were dosed at 10 mg/kg. This study was non-GLP.
(§1) The plasma samples were collected at predetermined time points for PK analysis. For non-termination plasma collection, blood samples were collected into the 1.5 mL Eppendorf tubes containing 3 μL of 0.5 M EDTA-K2. For termination plasma collection, the mice were euthanized at predetermined time points post the treatment and the blood samples were collected into the 1.5 mL Eppendorf tubes containing 15 μL of 0.5 M EDTA-K2. And then the anticoagulant blood samples were centrifuged at 2,500 g at 4° C. for 15 minutes. The plasma samples were separated into 2 aliquots. The 1st was used for PK analysis, and the 2nd served as backup. The samples were stored at −80° C. before bioanalysis.
The tumor samples were collected at predetermined time points for PK and WB analysis. The tumor was dissected out and split into 3 parts. The 1st part was used for PK analysis, the 2nd part was used for WB analysis and the last one served as backup for study. The samples were transferred into pre-labeled tubes and quickly froze in liquid nitrogen within 2 minutes after dissection. The samples were stored at −80° C. before bioanalysis.
(§2) Liver samples were collected at predetermined time points for PK analysis. The left lobe of the liver was dissected out and split into 2 parts. The 1st part was used for PK analysis and the 2nd part served as the backup for the study. The samples were transferred into pre-labeled tubes and quickly froze in liquid nitrogen within 2 minutes after dissection. The samples were stored at −80° C. before bioanalysis.
The harvested plasma and liver samples were processed for pharmacokinetics analysis by LC-MS/MS with a concentration range of 0.200~200 ng/mL for encorafenib in plasma and liver homogenate, and 0.100-100 ng/ml in tumor homogenate, 1.00-1000 ng/mL for Compound 8 in plasma and 0.500~500 ng/ml in tumor and liver homogenate, 50.0~50,000 ng/mL for Compound 26 and Compound 38 in plasma, 5.0~5000 ng/ml in liver and 2.00~2000 ng/ml in tumor homogenate, 1.00-1000 ng/mL for Compound 39 in plasma and 0.500~500 ng/mL in liver and tumor homogenate.

[2] = Example 8 pharmacokinetics assay for efficacy study (plasma, liver); type: in vivo, BALB/c nude mice; details: mouse, po, 10 mg/kg, p.o., BID × 21 days
Protocol: For efficacy study, agents were tested in the A375 human melanoma xenografts model. Compound 8, Compound 26, and Compound 38 were administered to BALB/c nude mice bearing A375 xenografts from day 0 and dosed p.o. twice per day (BID). Compound 8 and Compound 26 were dosed at 10 mg/kg for 21 days. Compound 38 was dosed at 10 mg/kg for 10 days. The known BRAF inhibitor encorafenib was used as a positive control. encorafenib was administered from day 1 and dosed p.o. daily (QD) for 21 days and dosed at 35 mg/kg.
as §1, §2
The harvested plasma and liver samples were processed for pharmacokinetics analysis by LC-MS/MS with a concentration range of 2.0~2000 ng/mL for encorafenib in plasma and liver homogenate, 10.0-10,000 ng/mL for Compound 8 and Compound 38 in plasma and liver homogenate, 20.0~20,000 ng/mL for Compound 26 in plasma and liver homogenate.

A375 tumors = assay: In vivo efficacy, A375 xenograft tumor volume (Example 7); set-up: species or system human A375 melanoma xenograft in female BALB/c nude mice; details: oral, FIG. 14; for tumor regressions in the xenograft model: 10 mg/kg BID, A375 xenografts; for antitumor response compared with comparators dabrafenib or encorafenib: A375 human melanoma xenografts
Protocol: FIG. 14 is a line graph showing in vivo efficacy of dabrafenib, Compound 141, Compound 118, Compound 156, and Compound 180 in the treatment of female BALB/c nude mice bearing A375 tumors. Mice were treated with vehicle (10 μL/g, p.o., BID), dabrafenib (100 mg/kg, p.o., QD), Compound 141 (10 mg/kg, p.o., QD), Compound 141 (10 mg/kg, p.o., BID), Compound 118 (10 mg/kg, p.o., BID), Compound 156 (10 mg/kg, p.o., BID), or Compound 180 (10 mg/kg, p.o., BID) by oral gavage (p.o.). Data points represent group mean change in tumor volume. Error bars represent standard error of the mean (SEM). The x-axis is the time measured in days and the y-axis is A375 tumor volume measured in mm^3. The experiment was conducted as described in Example 7.

[3] = liver, read-out: Concentration in Liver (mean ± SEM)
[4] = plasma, read-out: Concentration in Plasma (mean ± SEM)
[5] = liver, 6 h, read-out: Concentration in Liver (mean ± SEM)
[6] = liver, 12 h, read-out: Concentration in Liver (mean ± SEM)
[7] = plasma, 1 h, read-out: Concentration in Plasma (mean ± SEM)
[8] = plasma, 6 h, read-out: Concentration in Plasma (mean ± SEM)
[9] = plasma, 12 h, read-out: Concentration in Plasma (mean ± SEM)
[10] = plasma, 24 h, read-out: Concentration in Plasma (mean ± SEM)
[11] = tumor, 1 h, read-out: Concentration in Tumor (mean ± SEM)
[12] = tumor, 6 h, read-out: Concentration in Tumor (mean ± SEM)
[13] = tumor, 12 h, read-out: Concentration in Tumor (mean ± SEM)
[14] = tumor, 24 h, read-out: Concentration in Tumor (mean ± SEM)

For CCN(C)S(=O)(=O)Nc1ccc(F)c(Oc2ccc3ncn([C@H]4COC5(CCC(N6CCC(c7cc8c(cc7F)c(N7CCC(=O)NC7=O)nn8C)C(F)(F)C6)CC5)C4)c(=O)c3c2)c1C#N (single isomer, unassigned) [Compound 39], the “Concentration in Plasma (mean ± SEM)” value ([1]; 1 h, 60 min) was 34700 ± 3785 ng/mL, the “Concentration in Tumor (mean ± SEM)” value ([1]; 1 h, 60 min) was 3423 ± 648 ng/g and the “Concentration in Liver (mean ± SEM)” value ([1]; 6 h, 360 min) was 18200 ± 1735 ng/g. For the same compound, the “Concentration in Plasma (mean ± SEM)” value ([1]; 6 h, 360 min) was 15700 ± 1358 ng/mL, the “Concentration in Tumor (mean ± SEM)” value ([1]; 6 h, 360 min) was 4713 ± 256 ng/g and the “Concentration in Liver (mean ± SEM)” value ([1]; 12 h, 720 min) was 5610 ± 455 ng/g. For the same compound, the “Concentration in Plasma (mean ± SEM)” value ([1]; 12 h, 720 min) was 3973 ± 202 ng/mL, the “Concentration in Tumor (mean ± SEM)” value ([1]; 12 h, 720 min) was 1510 ± 43.6 ng/g and the “Concentration in Plasma (mean ± SEM)” value ([1]; 24 h, 1440 min) was 171 ± 20.8 ng/mL. For the same compound, the “Concentration in Tumor (mean ± SEM)” value ([1]; 24 h, 1440 min) was 79.3 ± 25.3 ng/g.

Compound CCN(C)S(=O)(=O)Nc1ccc(F)c(Oc2ccc3ncn(C4CC5(CCN(C6CCC(c7cc8c(cc7F)c(N7CCC(=O)NC7=O)nn8C)CC6)CC5)C4)c(=O)c3c2)c1C#N (single isomer, unassigned) [Compound 8, 6-[2-cyano-3-[[ethyl(methyl)sulfamoyl]amino]-6-fluoro-phenoxy]-3-[7-[4-[3-(2,4-dioxohexahydropyrimidin-1-yl)-5-fluoro-1-methyl-indazol-6-yl]cyclohexyl]-7-azaspiro[3.5]nonan-2-yl]-4-oxo-quinazoline] has a concentration at 6 h [2, 3] of 738 ± 299 ng/g, a concentration at 6 h [2, 4] of 984 ± 364 ng/mL and a concentration at 6 h [1, 5] of 379 ± 79.8 ng/g. It also gave a concentration at 12 h [1, 6] of 74.8 ± 11.3 ng/g, a concentration at 1 h [1, 7] of 2940 ± 149 ng/mL and a concentration at 6 h [1, 8] of 339 ± 60.3 ng/mL. It also gave a concentration at 12 h [1, 9] of 64.7 ± 16.8 ng/mL, a concentration at 24 h [1, 10] of 1.27 ± 0.2 ng/mL and a concentration at 1 h [1, 11] of 394 ± 17.6 ng/g. It also gave a concentration at 6 h [1, 12] of 139 ± 21.7 ng/g, a concentration at 12 h [1, 13] of 39.1 ± 5.77 ng/g and a concentration at 24 h [1, 14] of 8.52 ng/g.

In the case of CCN(C)S(=O)(=O)Nc1ccc(F)c(Oc2ccc3ncn(C4CC5(CCN(C6CCN(c7cc8c(cc7F)c(N7CCC(=O)NC7=O)nn8C)CC6)CC5)C4)c(=O)c3c2)c1C#N [Compound 156, 6-[2-cyano-3-[[ethyl(methyl)sulfamoyl]amino]-6-fluoro-phenoxy]-3-[7-[1-[3-(2,4-dioxohexahydropyrimidin-1-yl)-5-fluoro-1-methyl-indazol-6-yl]-4-piperidyl]-7-azaspiro[3.5]nonan-2-yl]-4-oxo-quinazoline], the “tumor regressions in the xenograft model” value (A375 tumors) is reported as “profound tumor regressions” and the “antitumor response compared with comparators dabrafenib or encorafenib” value (A375 tumors) is reported as “more robust antitumor response”.

Work on CCN(C)S(=O)(=O)Nc1ccc(F)c(Oc2ccc3ncn([C@H]4COC5(CCN(C6CC7(C6)CN(c6cc8c(cc6F)c(N6CCC(=O)NC6=O)nn8C)C7)CC5)C4)c(=O)c3c2)c1C#N [Compound 26, (3R)-3-[6-[2-cyano-3-[[ethyl(methyl)sulfamoyl]amino]-6-fluoro-phenoxy]-4-oxo-quinazolin-3-yl]-8-[2-[3-(2,4-dioxohexahydropyrimidin-1-yl)-5-fluoro-1-methyl-indazol-6-yl]-2-azaspiro[3.3]heptan-6-yl]-1-oxa-8-azaspiro[4.5]decane] yielded a concentration at 6 h [2, 3] of 4720 ± 367 ng/g, a concentration at 6 h [2, 4] of 16000 ± 2060 ng/mL and a concentration at 6 h [1, 5] of 11800 ± 551 ng/g. For the same compound, the concentration at 12 h [1, 6] was 3250 ± 601 ng/g, the concentration at 1 h [1, 7] was 29100 ± 733 ng/mL and the concentration at 6 h [1, 8] was 20800 ± 2930 ng/mL. The concentration at 12 h [1, 9] was 4600 ± 1140 ng/mL, the concentration at 24 h [1, 10] was 162 ± 15.3 ng/mL and the concentration at 1 h [1, 11] was 1900 ± 320 ng/g. It also gave a concentration at 6 h [1, 12] of 3770 ± 478 ng/g, a concentration at 12 h [1, 13] of 1400 ± 226 ng/g and a concentration at 24 h [1, 14] of 64.9 ± 19.9 ng/g.

With CCN(C)S(=O)(=O)Nc1ccc(F)c(Oc2ccc3ncc(OCC4CCN(C5CCC(c6cc7c(cc6F)c(N6CCC(=O)NC6=O)nn7C)CC5)CC4)nc3c2)c1C#N (single isomer, unassigned) [Compound 118, 7-[2-cyano-3-[[ethyl(methyl)sulfamoyl]amino]-6-fluoro-phenoxy]-2-[[1-[4-[3-(2,4-dioxohexahydropyrimidin-1-yl)-5-fluoro-1-methyl-indazol-6-yl]cyclohexyl]-4-piperidyl]methoxy]quinoxaline] the “tumor regressions in the xenograft model” value (A375 tumors) was “profound tumor regressions” and the “antitumor response compared with comparators dabrafenib or encorafenib” value (A375 tumors) was “more robust antitumor response”.

For CCN(C)S(=O)(=O)Nc1ccc(F)c(Oc2ccc3ncn(C4CC5(CCN(C6CC7(C6)CN(c6cc8c(cc6F)c(N6CCC(=O)NC6=O)nn8C)C7)CC5)C4)c(=O)c3c2)c1C#N (stereo not drawn) [Compound 141, 6-[2-cyano-3-[[ethyl(methyl)sulfamoyl]amino]-6-fluoro-phenoxy]-3-[7-[2-[3-(2,4-dioxohexahydropyrimidin-1-yl)-5-fluoro-1-methyl-indazol-6-yl]-2-azaspiro[3.3]heptan-6-yl]-7-azaspiro[3.5]nonan-2-yl]-4-oxo-quinazoline], the “tumor regressions in the xenograft model” value (A375 tumors) was “profound tumor regressions” and the “antitumor response compared with comparators dabrafenib or encorafenib” value (A375 tumors) was “more robust antitumor response”.

With CCN(C)S(=O)(=O)Nc1ccc(F)c(Oc2ccc3ncc(C4CC5(CCN(C6CCC(c7cc8c(cc7F)c(N7CCC(=O)NC7=O)nn8C)CC6)CC5)C4)nc3c2)c1C#N (single isomer, unassigned) [Compound 180, 7-[2-cyano-3-[[ethyl(methyl)sulfamoyl]amino]-6-fluoro-phenoxy]-2-[7-[4-[3-(2,4-dioxohexahydropyrimidin-1-yl)-5-fluoro-1-methyl-indazol-6-yl]cyclohexyl]-7-azaspiro[3.5]nonan-2-yl]quinoxaline] the “tumor regressions in the xenograft model” value (A375 tumors) was “profound tumor regressions” and the “antitumor response compared with comparators dabrafenib or encorafenib” value (A375 tumors) was “more robust antitumor response”.
